In ChEMBL document CHEMBL2146463, “Apoptosis-inducing effects of distichamine and narciprimine, rare alkaloids of the plant family Amaryllidaceae” (Bioorg Med Chem Lett, 2012):
Active and inactive are the calls of the source. The rule behind the calls is not given here.

Tests used:
HeLa = assay: Cytotoxicity against human HeLa cells after 72 hrs by Calcein AM assay; assay type: functional, cell-based
G-361 = assay: Cytotoxicity against human G361 cells after 72 hrs by Calcein AM assay; assay type: functional, cell-based; conditions: G-361, 72 h
BJ = assay: Cytotoxicity against human BJ cells after 72 hrs by Calcein AM assay
MCF7 [1] = assay: Cytotoxicity against human MCF7 cells after 72 hrs by Calcein AM assay; assay type: functional, cell-based; conditions: MCF7, 72 h
K562 = assay: Cytotoxicity against human K562 cells after 72 hrs by Calcein AM assay; assay type: functional, cell-based; conditions: K562, 72 h
CCRF-CEM [2] = assay: Cytotoxicity against human CEM cells after 72 hrs by Calcein AM assay; assay type: functional, cell-based
[3] = Induction of apoptosis in rat 5123TC cells after 48 hrs; assay type: functional; conditions: read-out: ED50 (the source's name)
[4] = Induction of apoptosis in rat 5123TC cells assessed as apoptotic index at 25 uM after 48 hrs; assay type: functional
CCRF-CEM [5] = assay: Cell cycle arrest in human CEM cells assessed as increase accumulation at G2/M phase after 24 hrs by FACS analysis; assay type: functional, cell-based
CCRF-CEM [6] = assay: Induction of apoptosis in human CEM cells assessed as decrease level of procaspase-3 at 1 to 20 uM after 24 hrs by Western Blot analysis; assay type: functional, cell-based
CCRF-CEM [7] = assay: Induction of apoptosis in human CEM cells assessed activity of Bcl-2 at 1 to 20 uM after 24 hrs by Western Blot analysis; assay type: functional, cell-based
CCRF-CEM [8] = assay: Induction of apoptosis in human CEM cells assessed increase in expression of p53 after 24 hrs by Western Blot analysis; assay type: functional, cell-based
CCRF-CEM [9] = assay: Induction of apoptosis in human CEM cells assessed as increase in activity of caspases-3/7 at 20 uM after 24 hrs by fluorescence analysis relative to control; assay type: functional
CCRF-CEM [10] = assay: Induction of apoptosis in human CEM cells assessed as increase cleavage of PARP at 1 to 20 uM after 24 hrs by Western Blot analysis; assay type: functional, cell-based
CCRF-CEM [11] = assay: Cell cycle arrest in human CEM cells assessed as decrease accumulation at G0/G1 phase at 1 to 20 uM after 24 hrs by FACS analysis; assay type: functional, cell-based
CCRF-CEM [12] = assay: Induction of apoptosis in human CEM cells assessed decrease level of Mcl-1 at 1 to 20 uM after 24 hrs by Western Blot analysis; assay type: functional, cell-based
CCRF-CEM [13] = assay: Cell cycle arrest in human CEM cells assessed as accumulation at sub-G1 phase at 20 uM after 24 hrs by FACS analysis relative to control; assay type: functional, cell-based
CCRF-CEM [14] = assay: Cell cycle arrest in human CEM cells assessed as decrease accumulation at S phase at 1 to 20 uM after 24 hrs by FACS analysis; assay type: functional, cell-based
MCF7 [15] = assay: Cytotoxicity against human MCF7 cells; assay type: functional, cell-based
NCI-H460 = assay: Cytotoxicity against human NCI-H460 cells by MTT assay; assay type: functional, cell-based
CCRF-CEM [16] = assay: Induction of apoptosis in human CEM cells assessed increase in expression of p53 at 20 uM after 24 hrs by Western Blot analysis; assay type: functional, cell-based
CCRF-CEM [17] = assay: Induction of apoptosis in human CEM cells assessed decrease level of Mcl-1 at 20 uM after 24 hrs by Western Blot analysis; assay type: functional, cell-based
CCRF-CEM [18] = assay: Induction of apoptosis in human CEM cells assessed as decrease level of procaspase-3 after 24 hrs by Western Blot analysis; assay type: functional, cell-based
CCRF-CEM [19] = assay: Cell cycle arrest in human CEM cells assessed as accumulation at sub-G1 phase at 1 to 20 uM after 24 hrs by FACS analysis relative to control; assay type: functional
CCRF-CEM [20] = assay: Induction of apoptosis in human CEM cells assessed as increase cleavage of PARP at 10 uM after 24 hrs by Western Blot analysis; assay type: functional, cell-based
CCRF-CEM [21] = assay: Induction of apoptosis in human CEM cells assessed as decrease level of procaspase-3 at 20 uM after 24 hrs by Western Blot analysis; assay type: functional, cell-based
CCRF-CEM [22] = assay: Induction of apoptosis in human CEM cells assessed as increase cleavage of PARP at 20 uM after 24 hrs by Western Blot analysis; assay type: functional, cell-based
CCRF-CEM [23] = assay: Induction of apoptosis in human CEM cells assessed increase in expression of p53 at 10 uM after 24 hrs by Western Blot analysis; assay type: functional, cell-based
CCRF-CEM [24] = assay: Induction of apoptosis in human CEM cells assessed as […] after 24 hrs by Western Blot analysis; assay type: functional, cell-based
CCRF-CEM [25] = assay: Induction of apoptosis in human CEM cells assessed as decrease level of procaspase-3 at 10 uM after 24 hrs by Western Blot analysis; assay type: functional, cell-based

Structure (SMILES)	IC50 (HeLa) [µM]	IC50 (G-361) [µM]	IC50 (BJ) [µM]	IC50 (MCF7 [1]) [µM]	IC50 (K562) [µM]	IC50 (CCRF-CEM [2]) [µM]	further results
COc1ccc2c3c1O[C@H]1CC(=O)C=C[C@@]31CCN(C)C2 [NARWEDINE]	> 50	> 50	> 50	> 50	> 50	31.6	
CO[C@@H]1C=C[C@@]23c4cc5c(cc4CN(C[C@@H]2O)[C@H]3C1)OCO5 [(+)-HAEMANTHAMINE]	7	3.7	2.7	8.1	3.4	2.1	EC50 [3]: 15 µM; Activity [4]: 90%
O=c1[nH]c2c(O)cccc2c2cc3c(c(O)c12)OCO3 [NARCIPRIMINE]	> 50	> 50	7.9	> 50	> 50	13.3	Activity (CCRF-CEM [5]): Dose-dependent effect; Activity (CCRF-CEM [6]): inactive; Activity (CCRF-CEM [7]): inactive; Activity (CCRF-CEM [8]): Dose-dependent effect; fold change (FC) (CCRF-CEM [9]): 1.8; Activity (CCRF-CEM [10]): inactive; Activity (CCRF-CEM [11]): Active; Activity (CCRF-CEM [12]): inactive; Activity (CCRF-CEM [13]): Active; Activity (CCRF-CEM [14]): Active
CO[C@H]1C=C[C@@]23c4cc5c(cc4CN(C[C@@H]2O)[C@H]3C1)OCO5							EC50 [3]: 12.5 µM; Activity [4]: 90%
COc1cc2c(cc1OC)[C@H]1[C@H]3C(=CC[C@H]1OC2=O)CCN3C [HOMOLYCORINE]	> 50	32.9	20.8	> 50	19.4	15	
COc1ccc2c3c1O[C@H]1C[C@@H](O)CC[C@]31CCN(C)C2 [LYCORAMINE]	> 50	> 50	> 50	> 50	> 50	> 50	
O=C1N[C@@H]2C(=C[C@H](O)[C@@H](O)[C@H]2O)c2cc3c(c(O)c21)OCO3 [NARCICLASINE]							IC50 (MCF7 [15]): 10 nM
COc1c2c(cc3c1OCO3)[C@]13C=C[C@H](OC)C[C@H]1N(CC3)C2 [BUPHANIDRINE]	> 50	> 50	26.2	> 50	> 50	> 50	
O=C(O[C@H]1[C@H](O)[C@@H](O)[C@@H](O)[C@@H]2NC(=O)c3c(cc4c(c3O)OCO4)[C@H]21)c1ccccc1 [PHENPANSTATIN]							IC50 (NCI-H460): 0.23 nM
COC1=CC(=O)[C@@]23CCN(Cc4c2cc2c(c4OC)OCO2)[C@@H]3C1 [DISTICHAMINE]	2.2	14.7	10.5	2.3	4.1	4.5	Activity (CCRF-CEM [5]): Dose-dependent effect; Activity (CCRF-CEM [7]): inactive; Activity (CCRF-CEM [16]): Active; Activity (CCRF-CEM [17]): Active; Activity (CCRF-CEM [18]): Dose-dependent effect; Activity (CCRF-CEM [8]): Dose-dependent effect; fold change (FC) (CCRF-CEM [9]): 12.5; Activity (CCRF-CEM [19]): 23.7%; Activity (CCRF-CEM [20]): Active; Activity (CCRF-CEM [21]): Active; Activity (CCRF-CEM [11]): Active; Activity (CCRF-CEM [22]): Active; Activity (CCRF-CEM [23]): Active; Activity (CCRF-CEM [24]): Dose-dependent effect; Activity (CCRF-CEM [25]): Active; Activity (CCRF-CEM [14]): Active
COc1c2c(cc3c1[C@@H](O)N1CC[C@]34[C@H]3O[C@H]3[C@H](OC)C[C@@H]14)OCO2							Activity [4]: 25%
CN[C@@H]1C[C@H]2O[C@@](C)([C@@H]1OC)n1c3ccccc3c3c4c(c5c6ccccc6n2c5c31)C(=O)NC4 [STAUROSPORINE]						0.023	
O[C@H]1[C@H]2c3cc4c(cc3CN3CCC(=C[C@@H]1O)[C@H]23)OCO4 [LYCORINE]	10.6	5	1.9	13	3.6	1.6	Activity (CCRF-CEM [2]): Dose-dependent effect
O=C1N[C@H]2[C@H](O)[C@H](O)[C@@H](O)[C@H](O)[C@@H]2c2cc3c(c(O)c21)OCO3 [PANCRATISTATIN]							IC50 (MCF7 [15]): 71 nM
COc1ccc2c3c1O[C@H]1C[C@@H](O)C=C[C@@]31CCN(C)C2 [GALANTAMINE]	> 50	> 50	> 50	> 50	> 50	> 50	
